Data set [1] can be described thus: Half life in human liver microsomes. Type of data set: ADME, Microsome.
Data set [2] is described as follows: Half life in mouse liver microsomes. In kind it is ADME, Microsome. (Microsomes from liver hold many membrane-bound enzymes, among them those of drug oxidation.)
Data set [3] has as its target T1, Cannabinoid receptor 1 (Homo sapiens, UniProt P21554).
Description: Agonist activity at human CB1 receptor transfected in CHO cells after 5 hrs by luciferase reporter gene assay
A further data set has as its target Cannabinoid receptor 2 (Homo sapiens, UniProt P34972). Briefly: Displacement of [3H]-CP55940 from human CB2 expressed in insect Sf9 membranes. In kind it is cell membranes.
The test system of data set [4] is Mus musculus. Briefly: Antinociceptive effect in iv dosed mouse assessed as increase in tail-flick latency period by tail flick test. Type of data set: functional. In general terms: In hot-plate and tail-flick tests a longer latency is read as antinociception.
Data set [5] addresses T1, Cannabinoid receptor 1. Nature of the data set: biochemical.
For data set [6], the system named is Mus musculus. Nature of the data set: Antinociceptive activity against formalin-induced inflammatory pain in iv dosed mouse assessed inhibition of paw licking behavior in both phases of formalin response. In kind it is functional, organism-based.
Data set [7] concerns Mus musculus. Nature of the data set: Antinociceptive activity against formalin-induced inflammatory pain in iv dosed mouse assessed inhibition of paw flinching behavior in both phases of formalin response. In kind it is functional, organism-based.
For data set [8], the system named is Mus musculus. Nature of the data set: Antinociceptive activity against formalin-induced inflammatory pain in iv dosed mouse assessed inhibition of paw lifting behavior in both phases of formalin response. In kind it is functional, organism-based.
Data set [9] relates to Mus musculus. Briefly: Antinociceptive activity against formalin-induced inflammatory pain in iv dosed mouse assessed inhibition of paw biting behavior in both phases of formalin response. In kind it is functional, organism-based.
For data set [10], the system named is Mus musculus. Nature of the data set: Antinociceptive activity against formalin-induced inflammatory pain in mouse assessed inhibition of paw licking behavior in both phases of formalin response at => 0.3 umol/kg, iv. Type of data set: functional, organism-based.
In data set [11] the test system is Mus musculus. Nature of the data set: Antinociceptive activity against formalin-induced inflammatory pain in mouse assessed inhibition of paw flinching behavior in both phases of formalin response at => 0.3 umol/kg, iv. Type of data set: functional, organism-based.
Data set [12] has as its system Mus musculus. Briefly: Antinociceptive activity against formalin-induced inflammatory pain in mouse assessed inhibition of paw lifting behavior in both phases of formalin response at => 0.3 umol/kg, iv. In kind it is functional, organism-based.
The subject of data set [13] is Mus musculus. Briefly: Antinociceptive activity against formalin-induced inflammatory pain in mouse assessed inhibition of paw biting behavior in both phases of formalin response => 0.3 umol/kg, iv. Type of data set: functional, organism-based.
In data set [14] the test system is Mus musculus. Briefly: Antinociceptive activity against formalin-induced inflammatory pain in iv dosed mouse assessed inhibition of paw flinching behavior in both phases of formalin response in presence of CB1 antagonist SR-141716A pretreated before compound challenge. Type of data set: functional, organism-based.
The subject of data set [15] is Mus musculus. Nature of the data set: Antinociceptive activity against formalin-induced inflammatory pain in iv dosed mouse assessed inhibition of paw licking behavior in both phases of formalin response in presence of CB1 antagonist SR-141716A pretreated before compound challenge. Type of data set: functional, organism-based.
For data set [16], the system named is Mus musculus. Briefly: Antinociceptive activity against formalin-induced inflammatory pain in iv dosed mouse assessed inhibition of paw lifting behavior in both phases of formalin response in presence of CB1 antagonist SR-141716A pretreated before compound challenge. Type of data set: functional, organism-based.
Data set [17] deals with Mus musculus. Nature of the data set: Antinociceptive activity against formalin-induced inflammatory pain in iv dosed mouse assessed inhibition of paw biting behavior in both phases of formalin response in presence of CB1 antagonist SR-141716A pretreated before compound challenge. Type of data set: functional, organism-based.
Another data set deals with Cytochrome P450 3A4 (Homo sapiens, UniProt P08684). Nature of the data set: Inhibition of human CYP3A4. Type of data set: ADME.
Sequence of Cytochrome P450 3A4 (P08684 whole entry): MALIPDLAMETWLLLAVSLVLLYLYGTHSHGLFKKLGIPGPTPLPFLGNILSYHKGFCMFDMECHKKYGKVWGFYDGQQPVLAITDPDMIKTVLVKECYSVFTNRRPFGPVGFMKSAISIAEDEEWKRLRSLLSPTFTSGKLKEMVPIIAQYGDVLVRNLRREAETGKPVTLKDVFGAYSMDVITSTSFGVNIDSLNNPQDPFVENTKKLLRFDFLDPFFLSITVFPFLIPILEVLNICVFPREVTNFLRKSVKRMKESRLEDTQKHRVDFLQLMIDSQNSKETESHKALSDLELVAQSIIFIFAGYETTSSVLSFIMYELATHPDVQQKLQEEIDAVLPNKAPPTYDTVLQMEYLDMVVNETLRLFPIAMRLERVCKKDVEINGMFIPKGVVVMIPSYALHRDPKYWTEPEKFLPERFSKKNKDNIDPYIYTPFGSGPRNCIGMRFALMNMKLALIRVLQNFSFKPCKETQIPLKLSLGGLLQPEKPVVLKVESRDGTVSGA
A further data set deals with Cytochrome P450 2C9 (Homo sapiens, UniProt P11712). Briefly: Inhibition of human CYP2C9. In kind it is ADME.
Sequence of Cytochrome P450 2C9 (P11712 whole entry): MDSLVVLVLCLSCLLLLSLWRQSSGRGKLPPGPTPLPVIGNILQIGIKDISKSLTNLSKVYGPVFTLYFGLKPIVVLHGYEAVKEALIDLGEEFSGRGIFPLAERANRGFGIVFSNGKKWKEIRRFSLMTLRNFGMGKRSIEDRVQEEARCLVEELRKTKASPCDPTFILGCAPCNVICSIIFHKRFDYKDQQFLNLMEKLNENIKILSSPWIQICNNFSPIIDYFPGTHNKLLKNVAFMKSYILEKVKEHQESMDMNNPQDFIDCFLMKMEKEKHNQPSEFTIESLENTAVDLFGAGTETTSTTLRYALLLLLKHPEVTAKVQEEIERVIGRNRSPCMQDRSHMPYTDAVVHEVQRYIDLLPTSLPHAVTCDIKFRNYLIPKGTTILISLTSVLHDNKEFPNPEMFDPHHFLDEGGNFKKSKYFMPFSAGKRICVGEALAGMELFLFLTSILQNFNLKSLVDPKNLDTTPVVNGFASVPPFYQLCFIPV
Another data set has as its target Cytochrome P450 2D6 (Homo sapiens, UniProt P10635). Nature of the data set: Inhibition of human CYP2D6. Type of data set: ADME.
Data set [18] can be described thus: Genotoxicity in Salmonella Typhimurium up to 100 uM by Ames test. In kind it is toxicity. To be noted: salmonella enterica subsp. enterica serovar typhimurium. (In the Ames test, an excess of revertant colonies over the control signals mutagenicity.)

The source made the active and inactive calls.

T1 sequence (P21554 whole entry): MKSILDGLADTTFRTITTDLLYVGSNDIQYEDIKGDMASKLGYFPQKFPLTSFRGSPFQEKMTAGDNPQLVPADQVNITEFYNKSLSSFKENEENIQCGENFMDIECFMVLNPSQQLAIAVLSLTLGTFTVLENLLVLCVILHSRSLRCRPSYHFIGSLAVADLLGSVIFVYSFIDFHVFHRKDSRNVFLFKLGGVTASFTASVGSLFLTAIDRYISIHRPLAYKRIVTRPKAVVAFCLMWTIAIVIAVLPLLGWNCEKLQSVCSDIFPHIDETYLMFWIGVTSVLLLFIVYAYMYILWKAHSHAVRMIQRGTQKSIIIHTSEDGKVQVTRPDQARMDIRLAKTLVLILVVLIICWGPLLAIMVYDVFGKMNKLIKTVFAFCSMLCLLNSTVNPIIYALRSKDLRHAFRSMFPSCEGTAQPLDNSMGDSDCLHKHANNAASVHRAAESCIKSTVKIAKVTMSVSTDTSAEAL
Sequence of Cannabinoid receptor 2 (P34972 whole entry): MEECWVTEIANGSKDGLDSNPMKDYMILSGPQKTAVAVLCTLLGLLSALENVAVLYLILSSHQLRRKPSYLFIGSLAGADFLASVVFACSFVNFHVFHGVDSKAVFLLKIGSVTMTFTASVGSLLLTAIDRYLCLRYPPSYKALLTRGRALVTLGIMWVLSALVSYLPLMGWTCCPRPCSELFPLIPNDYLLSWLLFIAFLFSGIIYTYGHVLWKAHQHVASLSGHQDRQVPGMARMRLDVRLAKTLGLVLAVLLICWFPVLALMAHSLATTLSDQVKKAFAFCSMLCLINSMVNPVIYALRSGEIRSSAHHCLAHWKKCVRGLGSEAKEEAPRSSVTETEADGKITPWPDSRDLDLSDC
Sequence of Cytochrome P450 2D6 (P10635 whole entry): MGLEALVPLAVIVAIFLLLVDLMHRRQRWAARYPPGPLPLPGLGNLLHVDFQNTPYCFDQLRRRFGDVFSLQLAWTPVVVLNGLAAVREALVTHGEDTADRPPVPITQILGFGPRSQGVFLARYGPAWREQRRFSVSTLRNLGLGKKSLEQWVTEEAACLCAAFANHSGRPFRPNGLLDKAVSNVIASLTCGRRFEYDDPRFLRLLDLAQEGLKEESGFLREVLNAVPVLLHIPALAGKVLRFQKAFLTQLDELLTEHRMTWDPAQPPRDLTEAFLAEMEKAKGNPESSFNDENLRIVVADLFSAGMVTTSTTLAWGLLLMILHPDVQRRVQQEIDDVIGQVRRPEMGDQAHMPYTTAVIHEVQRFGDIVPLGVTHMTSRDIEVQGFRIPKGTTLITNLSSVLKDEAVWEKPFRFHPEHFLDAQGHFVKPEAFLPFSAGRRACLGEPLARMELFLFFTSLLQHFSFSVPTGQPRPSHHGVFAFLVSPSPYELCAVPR

By half-life is commonly meant the time needed for the level to fall by half in the phase considered. Lower therefore signals fast loss. By EC50 is commonly meant the midpoint of the concentration-response curve. As for `COc1cccc2c(C(=O)N3CCN4CCCC[C@@H]4C3)cn(CC3CCCCC3)c12`, the half-life in [1] and in data set [2] was under 5 min throughout. At Cannabinoid receptor 1 [3], the EC50 was 100 nM.
Turning to `COc1cccc2c(C(=O)N3CCN4CCCC[C@H]4C3)cn(CC3CCCCC3)c12.Cl`, the half-life in [1] and in data set [2] was under 5 min throughout.
Consider `COc1cccc2c(C(=O)N3C[C@H]4CCCN4C[C@H]3CC(C)C)cn(CC3CCCCC3)c12`, for which the half-life in data set [1] and in data set [2] was under 5 min in each case. The molecule further showed a concentration giving a half-maximal response (EC50) at Cannabinoid receptor 1 [3] of 316 nM.
For the molecule `COc1cccc2c(C(=O)N3C[C@@H]4CCCN4C[C@@H]3CC(C)C)cn(CC3CCCCC3)c12`, the half-life in data set [1] and in [2] was under 5 min in each case. This molecule also returned an EC50 at Cannabinoid receptor 1 [3] of over 10000 nM.
Take `COc1cccc2c(C(=O)N3C[C@]4(C)CSCN4C[C@@H]3C)cn(CC3CCCCC3)c12.Cl`: the half-life in [1] and in [2] was under 5 min each time. Further, the EC50 on Cannabinoid receptor 1 [3] was 31.6 nM.
Consider `O=C(c1cn2c3c(cccc13)OC[C@@H]2C1CCCCC1)N1CCN2CCCC[C@H]2C1`, for which the EC50 on Cannabinoid receptor 1 [3] was 2000 nM.
For `COc1cccc2c(C(=O)N3CCN4CCC[C@@H]4C3)cn(CC3CCCCC3)c12`, the half-life in data set [1] and in data set [2] was under 5 min in each case. This molecule had an EC50 at Cannabinoid receptor 1 [3] of 63.1 nM.
For `COc1cccc2c(C(=O)N3C[C@@H]4CCCN4C[C@H]3C)cn(CC3CCCCC3)c12.Cl`, the half-life in [1] and in [2] was under 5 min throughout. A half-maximal effect on Cannabinoid receptor 1 [3] (EC50) was put at 1000 nM.
On to `COc1cccc2c(C(=O)N3C[C@H]4CCCN4C[C@H]3C)cn(CC3CCCCC3)c12.Cl`, for which the half-life in data set [1] and in data set [2] was under 5 min each time. Moreover, on Cannabinoid receptor 1 [3], the EC50 is 63.1 nM.
Usually Ki stands for a measure of affinity in units of concentration, obtained from inhibition or displacement. Usually ED50 stands for the dose that gives a 50% effect, or the effect in half of the subjects. `O=C(c1cn2c3c(cccc13)OC[C@H]2C1CCCCC1)N1CCN2CCCC[C@H]2C1`: the Ki on Cannabinoid receptor 2 was 0.398 nM; on Cannabinoid receptor 1 [5], 1.58 nM. Besides, the ED50 with Mus musculus [4] came out at 0.00042 µmol/kg.
For the molecule `Cc1c(C(=O)c2cccc3ccccc23)c2cccc3c2n1[C@H](CN1CCOCC1)CO3` [WIN-552122], the ED50 in the data set on Mus musculus [4] is 0.0017 µmol/kg.
`COc1cccc2c(C(=O)N3C[C@H]4CCCN4CC3(C)C)cn(CC3CCCCC3)c12`: the half-life in data set [1] and in [2] was under 5 min in each case. For the same molecule, the response at Cannabinoid receptor 1 [3] was half-maximal at 631 nM (EC50).
Take `CCCCCCC(C)(C)c1ccc([C@@H]2C[C@H](O)CC[C@H]2CCCO)c(O)c1` [CP-55940]: in the data set with Mus musculus [4], the ED50 amounted to 0.00011 µmol/kg.
In the case of `COc1cccc2c(C(=O)N3CCN4CCCC[C@H]4C3)cn(CC3CCCCC3)c12` [listing 1 of 2 here], the Activity entry in the data set on Mus musculus [6], in the data set with Mus musculus [7], in the data set on Mus musculus [8] and with Mus musculus [9] was “Dose-dependent effect” throughout. The outcome in the data set on Mus musculus [10], in the data set with Mus musculus [11], in the data set on Mus musculus [12] and in the data set with Mus musculus [13] was Active. For the same molecule, the result in the data set with Mus musculus [14], in the data set with Mus musculus [15], with Mus musculus [16] and in the data set with Mus musculus [17] was inactive.
For the molecule `COc1cccc2c(C(=O)N3CCN4CCC[C@@]4(C)C3)cn(CC3CCCCC3)c12.Cl`, the half-life in data set [1] and in data set [2] was under 5 min throughout. In addition, the EC50 on Cannabinoid receptor 1 [3] is 1260 nM.
As to `COc1cccc2c(C(=O)N3C[C@@H]4CCCN4C[C@@H]3C)cn(CC3CCCCC3)c12`, the half-life in data set [1] and in data set [2] was under 5 min each time. Moreover, the concentration giving a half-maximal response (EC50) at Cannabinoid receptor 1 [3] was 100 nM.
For `COc1cccc2c(C(=O)N3C[C@@H]4CCCN4CC3(C)C)cn(CC3CCCCC3)c12`, the half-life in data set [1] and in [2] was under 5 min in each case. This molecule gave an EC50 on Cannabinoid receptor 1 [3] of 100 nM.
With `COc1cccc2c(C(=O)N3C[C@H]4CCCN4C[C@@H]3C)cn(CC3CCCCC3)c12.Cl`, the half-life in [1] and in data set [2] was under 5 min each time. In addition, the EC50 on Cannabinoid receptor 1 [3] was 501 nM.
A word on the IC50: it is the concentration at which inhibition is half-maximal. Low readings indicate greater potency in that assay, high ones weaker potency in that assay. Take `COc1cccc2c(C(=O)N3CCN4CCCC[C@H]4C3)cn(CC3CCCCC3)c12` [listing 2 of 2 here]: the IC50 at Cytochrome P450 3A4 was 6000 nM; on Cytochrome P450 2C9, 12000 nM; on Cytochrome P450 2D6, 13000 nM. The Ki at Cannabinoid receptor 2 is 3.98 nM; on Cannabinoid receptor 1 [5], 2.51 nM. In the data set on Mus musculus [4], the ED50 came to 0.00058 µmol/kg. In data set [18], the Activity entry was “Non-toxic”.
Consider `COc1cccc2c(C(=O)N3CCN4CCC[C@H]4C3)cn(CC3CCCCC3)c12.Cl`, for which the half-life in data set [1] and in [2] was under 5 min throughout. Further, the EC50 at Cannabinoid receptor 1 [3] is 20 nM.

These data come from ChEMBL document CHEMBL1287799, “Design, synthesis, and structure-activity relationship study of bicyclic piperazine analogs of indole-3-carboxamides as novel cannabinoid CB1 receptor agonists” (Bioorg Med Chem Lett, 2010).
